Laboratory results: ChEMBL document CHEMBL1833830, “1-[2-(2-Benzoyl- and 2-benzylphenoxy)ethyl]uracils as potent anti-HIV-1 agents” (Bioorg Med Chem, 2011)
≈ marks a conversion by molar mass, not a printed value. Calls of active or inactive are those of the source. No cut-off for these calls is given here.

Columns and labels:
Human respirovirus 3 = assay: Antiviral activity against Parainfluenza 3 virus assessed as inhibition of viral replication; format: functional, organism-based
[1] = tested on: Mammalian orthoreovirus 1; assay: Antiviral activity against Reovirus 1 assessed as inhibition of viral replication; format: functional, organism-based
Sindbis virus = assay: Antiviral activity against Sindbis virus assessed as inhibition of viral replication; format: functional, organism-based
[2] = tested on: Vesicular stomatitis virus; assay: Antiviral activity against Vesicular stomatitis virus assessed as inhibition of viral replication; format: functional, organism-based
[3] = tested on: Respiratory syncytial virus; assay: Antiviral activity against Respiratory syncytial virus assessed as inhibition of viral replication; format: functional, organism-based
Coxsackievirus B4 = assay: Antiviral activity against Coxsackievirus B4 assessed as inhibition of viral replication; format: functional, organism-based
Feline coronavirus = assay: Antiviral activity against Feline coronavirus assessed as inhibition of viral replication; format: functional, organism-based
Yellow fever virus = assay: Antiviral activity against Yellow fever virus assessed as inhibition of viral replication; format: functional, organism-based
Dengue virus = assay: Antiviral activity against Dengue virus assessed as inhibition of viral replication; format: functional, organism-based
Rift Valley fever virus = assay: Antiviral activity against Rift Valley fever virus assessed as inhibition of viral replication; format: functional, organism-based
Punta Toro virus = assay: Antiviral activity against Punta Toro virus assessed as inhibition of viral replication; format: functional, organism-based
West Nile virus = assay: Antiviral activity against West Nile virus assessed as inhibition of viral replication; format: functional, organism-based
[4] = Inhibition of DNA-dependent DNA polymerase activity of HIV1 reverse transcriptase p66/p66 homodimer using activated DNA and [alpha-32P]dATP after 30 mins by liquid scintillation counting; set-up: species or system Human immunodeficiency virus 1
[5] = molecular target: Human immunodeficiency virus type 1 reverse transcriptase (Human immunodeficiency virus 1, UniProt Q72547); assay: Inhibition of RNA-dependent DNA polymerase activity of HIV1 reverse transcriptase p66/p51 heterodimer using [8-3H]dGTP as substrate after 30 mins by liquid scintillation counting
[6] = tested on: Human immunodeficiency virus 1; assay: Inhibition of DNA-dependent DNA polymerase activity of HIV1 reverse transcriptase p66/p66 homodimer using activated DNA and [alpha-32P]dATP after 30 mins by liquid scintillation counting in presence of heparin
[7] = Selectivity index, ratio of CC50 for human CEM cells to EC50 for HIV1 3B; format: toxicity, cell-based, CCRF-CEM; details: read-out: Ratio CC50/EC50
[8] = Solubility of the compound in 10% DMSO after overnight incubation by UV spectrometric analysis; format: physicochemical
[9] = Solubility of the compound in 0.1% DMSO after overnight incubation by UV spectrometric analysis; format: physicochemical
[10] = tested on: Human immunodeficiency virus 1; assay: Antiviral activity against HIV1 3B infected in human CEM cells assessed as inhibition of virus-induced giant cell formation after 4 days by microscopic analysis; format: functional, organism-based; details: Human immunodeficiency virus 1, 3B, CCRF-CEM, 96 h
[11] = tested on: Human immunodeficiency virus 2; assay: Antiviral activity against Human immunodeficiency virus type 2 ROD infected in human CEM cells assessed as inhibition of virus-induced giant cell formation after 4 days by microscopic analysis; format: functional, organism-based; details: ISOLATE ROD, CCRF-CEM
[12] = tested on: Human immunodeficiency virus 2; assay: Antiviral activity against Human immunodeficiency virus type 2 ROD infected in human MT4 cells assessed as inhibition of virus-induced cytopathic effect after 4 days by MTT assay; format: functional, organism-based; details: ISOLATE ROD
[13] = Cytotoxicity against human CEM cells after 4 days by MTT assay; format: cell-based; details: CEM cells (CCRF-CEM)
Human alphaherpesvirus 1 = assay: Antiviral activity against HSV1 assessed as inhibition of viral replication; format: functional, organism-based
Human alphaherpesvirus 2 = assay: Antiviral activity against HSV-2 assessed as inhibition of viral replication; format: functional, organism-based
Vaccinia virus = assay: Antiviral activity against Vaccinia virus assessed as inhibition of viral replication; format: functional, organism-based; details: Orthopoxvirus vaccinia
[14] = tested on: Human immunodeficiency virus 1; format: functional, organism-based; details: Human immunodeficiency virus 1, 3B, CCRF-CEM, 96 h
[15] = Inhibition of DNA-dependent DNA polymerase activity of HIV1 reverse transcriptase p66/p66 homodimer L100I mutant using activated DNA and [alpha-32P]dATP after 30 mins by liquid scintillation counting; set-up: species or system Human immunodeficiency virus 1
[16] = Inhibition of DNA-dependent DNA polymerase activity of HIV1 reverse transcriptase p66/p66 homodimer V106A mutant using activated DNA and [alpha-32P]dATP after 30 mins by liquid scintillation counting; set-up: species or system Human immunodeficiency virus 1
[17] = Inhibition of DNA-dependent DNA polymerase activity of HIV1 reverse transcriptase p66/p66 homodimer Y188L mutant using activated DNA and [alpha-32P]dATP after 30 mins by liquid scintillation counting; set-up: species or system Human immunodeficiency virus 1
[18] = Inhibition of DNA-dependent DNA polymerase activity of HIV1 reverse transcriptase p66/p66 homodimer G190A mutant using activated DNA and [alpha-32P]dATP after 30 mins by liquid scintillation counting; set-up: species or system Human immunodeficiency virus 1
[19] = tested on: Human immunodeficiency virus 1; assay: Ratio of Ki for HIV1 RT p66/p66 homodimer L100I mutant to Ki for wild-type HIV1 RT p66/p66 homodimer
[20] = tested on: Human immunodeficiency virus 1; assay: Ratio of Ki for HIV1 RT p66/p66 homodimer K103N mutant to Ki for wild-type HIV1 RT p66/p66 homodimer
[21] = tested on: Human immunodeficiency virus 1
[22] = tested on: Human immunodeficiency virus 1; assay: Ratio of Ki for HIV1 RT p66/p66 homodimer Y188L mutant to Ki for wild-type HIV1 RT p66/p66 homodimer
[23] = tested on: Human immunodeficiency virus 1; assay: Ratio of Ki for HIV1 RT p66/p66 homodimer G190A mutant to Ki for wild-type HIV1 RT p66/p66 homodimer
[24] = tested on: Human immunodeficiency virus 1; remark: listed apart in the source
[25] = tested on: Human immunodeficiency virus 1; format: functional, organism-based; details: Human immunodeficiency virus 1, 3B, MT4, 96 h
[26] = Cytotoxicity against human MT4 cells after 4 days by MTT assay; format: cell-based
[27] = molecular target: Human immunodeficiency virus type 1 reverse transcriptase (Human immunodeficiency virus 1, UniProt Q72547, K103N)
in vitro [28] = details: human, MT4 cells
in vitro [29] = details: human, MT4 cells; remark: listed apart in the source
[30] = tested on: Human immunodeficiency virus 1; assay: microbe, parasite or virus in culture; details: Human immunodeficiency virus 1, 3B, MT4, 96 h

| Compound | Activity (Human respirovirus 3) | Activity [1] | Activity (Sindbis virus) | Activity [2] | Activity [3] | Activity (Coxsackievirus B4) | Activity (Feline coronavirus) | Activity (Yellow fever virus) | Activity (Dengue virus) | Activity (Rift Valley fever virus) | Activity (Punta Toro virus) | Activity (West Nile virus) | Ki [4] [µM] | Ki [5] [µM] | solubility [8] [µM] | solubility [9] [µM] | Activity [11] | Activity [12] | Activity (Human alphaherpesvirus 1) | Activity (Human alphaherpesvirus 2) | other results |
| --- | --- | --- | --- | --- | --- | --- | --- | --- | --- | --- | --- | --- | --- | --- | --- | --- | --- | --- | --- | --- | --- |
| Cc1cc(C)cc(Cc2cc(C)ccc2OCCn2ccc(=O)[nH]c2=O)c1 | inactive | inactive | inactive | inactive | inactive | inactive | inactive | inactive | inactive | inactive | inactive | inactive | 5.9 | 2.7 | 184 (≈ 67.2 µg/mL) | 44.4 (≈ 16.2 µg/mL) | inactive | inactive | inactive | inactive | inhibition [6]: Active; selectivity ratio [7]: 507; EC50 [10]: 0.13 µM; CC50 at 96 h [13]: 66 µM; Activity (Vaccinia virus): inactive |
| Cc1cc(C)cc(Cc2cc(Cl)ccc2OCCn2ccc(=O)[nH]c2=O)c1 | inactive | inactive | inactive | inactive | inactive | inactive | inactive | inactive | inactive | inactive | inactive | inactive | 5 | 2.1 | 1.7 (≈ 0.654 µg/mL) | 0.9 (≈ 0.346 µg/mL) | inactive | inactive | inactive | inactive | selectivity ratio [7]: > 909; EC50 [10]: 0.22 µM; EC50 [14]: > 200 µM; CC50 at 96 h [13]: > 200 µM; Activity (Vaccinia virus): inactive |
| O=C(c1cc(Cl)cc(Cl)c1)c1cc(Cl)ccc1OCCn1ccc(=O)[nH]c1=O | inactive | inactive | inactive | inactive | inactive | inactive | inactive | inactive | inactive | inactive | inactive | inactive | 0.68 | 0.82 | 9.4 (≈ 4.13 µg/mL) | 1.9 (≈ 0.835 µg/mL) | inactive | inactive | inactive | inactive | Ki [15]: 1.8 µM; Ki [16]: > 1200 µM; Ki [17]: 8.4 µM; Ki [18]: 1.6 µM; Ratio Ki [19]: 2.5; Ratio Ki [20]: 8; Ratio Ki [21]: 2; Ratio Ki [22]: 12; Ratio Ki [23]: 2.3; Ratio Ki [24]: 14.9; EC50 [25]: 1.13 µM; CC50 at 96 h [26]: > 284 µM; Activity (Vaccinia virus): inactive; Ki [27]: 5.6 µM; selectivity ratio (in vitro [28]): > 15800; selectivity ratio (in vitro [29]): > 251; EC50 [30]: 0.018 µM |
